This note sets out measurements from US12410163B2, “Compounds as GLP-IR agonists” (Terns Pharmaceuticals, Inc., priority 2022, dated 2025).

The term pEC50 denotes −log10 of the EC50, conventionally taken in molar units.

pEC50: −log10 of the molar value.

The target in the test is T1, human GLP-1R receptor (Homo sapiens, UniProt P43220).
T1 construct: expressed in transfected cells
Kind of test: GLP-1R low expression cell assay (cAMP TR-FRET, CHO-K1_hGLP-1Rlow_clone10). Format: cell-based. To be noted: CHO-K1_hGLP-1Rlow_clone10 cells, percent activation relative to control GLP-1 peptide. The procedure, abridged:
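CHO-K1 cells stably expressing low surface levels of human GLP-1R were exposed to 10-point, 3-fold compound dilutions for 30 min at 25 °C, then cAMP was read by TR-FRET (Eu-cAMP/ULight-anti-cAMP, 15 min). EC50 came from Hill fits of percent activation relative to a GLP-1 control agonist, duplicate wells.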

T1 sequence (P43220 24-463): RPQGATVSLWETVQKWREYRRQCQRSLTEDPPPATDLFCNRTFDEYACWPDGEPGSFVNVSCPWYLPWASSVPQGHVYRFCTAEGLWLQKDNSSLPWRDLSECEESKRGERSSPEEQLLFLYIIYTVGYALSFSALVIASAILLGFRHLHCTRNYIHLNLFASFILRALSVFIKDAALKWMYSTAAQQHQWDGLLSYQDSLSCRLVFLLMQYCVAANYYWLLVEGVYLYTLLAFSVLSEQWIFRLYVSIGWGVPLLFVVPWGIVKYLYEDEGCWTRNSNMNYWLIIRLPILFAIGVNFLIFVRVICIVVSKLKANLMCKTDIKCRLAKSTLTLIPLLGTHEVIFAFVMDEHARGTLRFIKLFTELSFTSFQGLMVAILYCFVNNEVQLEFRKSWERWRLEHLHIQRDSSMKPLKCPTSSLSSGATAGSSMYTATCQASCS

`CCn1nncc1Cn1c(CN2CCN(c3cccc(OCc4ccc(C#N)cc4F)n3)[C@H]3C[C@H]32)nc2ccc(C(=O)O)cc21` [Compound 45, 2-((5-(6-((4-Cyano-2-fluorobenzyl)oxy)pyridin-2-yl)-2,5-diazabicyclo[4.1.0]heptan-2-yl)methyl)-1-((1-ethyl-1H-1,2,3-triazol-5-yl)methyl)-1H-benzo[d]imidazole-6-carboxylic Acid] showed a pEC50 above 8.30.

As for `N#Cc1ccc(COc2cccc([C@H]3CCN(Cc4nc5ccc(C(=O)O)cc5n4Cc4cncs4)[C@H]4C[C@@H]34)n2)c(F)c1` (single isomer, unassigned) [Compound 14, 2-((5-(6-((4-Cyano-2-fluorobenzyl)oxy)pyridin-2-yl)-2-azabicyclo[4.1.0]heptan-2-yl)methyl)-1-(thiazol-5-ylmethyl)-1H-benzo[d]imidazole-6-carboxylic Acid], the pEC50 is 7.30 to 8.30.

Consider `N#Cc1ccc(COc2cccc(N3CCN(Cc4nc5ccc(C(=O)O)cc5n4Cc4cncs4)[C@H]4C[C@H]43)n2)c(F)c1` (single isomer, unassigned) [Compound 2, 2-((5-(6-((4-Cyano-2-fluorobenzyl)oxy)pyridin-2-yl)-2,5-diazabicyclo[4.1.0]heptan-2-yl)methyl)-1-(thiazol-5-ylmethyl)-1H-benzo[d]imidazole-6-carboxylic Acid], for which the pEC50 is 7.00 to 7.30.

As for `N#Cc1ccc(COc2cccc(N3CCN(Cc4nc5ccc(C(=O)O)cc5n4C[C@@H]4CCO4)[C@@H]4C[C@@H]43)n2)c(F)c1` (single isomer, unassigned) [Compound 43], the pEC50 is above 8.30.

On to `N#Cc1ccc(COc2cccc(N3CCN(Cc4nc5ccc(C(=O)O)cc5n4Cc4cncs4)[C@@H]4C[C@@H]43)n2)c(F)c1` (single isomer, unassigned) [Compound 1, 2-((5-(6-((4-cyano-2-fluorobenzyl)oxy)pyridin-2-yl)-2,5-diazabicyclo[4.1.0]heptan-2-yl)methyl)-1-(thiazol-5-ylmethyl)-1H-benzo[d]imidazole-6-carboxylic Acid], for which the pEC50 was above 8.30.

The molecule `CC1(c2ccc(C#N)cc2F)Oc2cccc(N3CCN(Cc4nc5ccc(C(=O)O)cc5n4CC4(C#N)CC4)C4CC43)c2O1` (centres unmarked) [Compound 40, 2-((5-(2-(4-Cyano-2-fluorophenyl)-2-methylbenzo[d][1,3]dioxol-4-yl)-2,5-diazabicyclo[4.1.0]heptan-2-yl)methyl)-1-((1-cyanocyclopropyl)methyl)-1H-benzo[d]imidazole-6-carboxylic Acid] showed a pEC50 above 8.30.

Turning to `N#Cc1ccc(COc2cccc([C@@H]3CCN(Cc4nc5ccc(C(=O)O)cc5n4Cc4cncs4)[C@@H]4C[C@@H]43)n2)c(F)c1` (single isomer, unassigned) [Compound 5, 2-((5-(6-((4-Cyano-2-fluorobenzyl)oxy)pyridin-2-yl)-2-azabicyclo[4.1.0]heptan-2-yl)methyl)-1-(thiazol-5-ylmethyl)-1H-benzo[d]imidazole-6-carboxylic Acid], the pEC50 was 7.30 to 8.30.

Turning to `N#Cc1ccc(COc2cccc([C@H]3CCN(Cc4nc5ccc(C(=O)O)cc5n4Cc4cncs4)[C@@H]4C[C@H]34)n2)c(F)c1` (single isomer, unassigned) [Compound 4, 2-((5-(6-((4-Cyano-2-fluorobenzyl)oxy)pyridin-2-yl)-2-azabicyclo[4.1.0]heptan-2-yl)methyl)-1-(thiazol-5-ylmethyl)-1H-benzo[d]imidazole-6-carboxylic Acid], the pEC50 is above 8.30.

Molecule `N#Cc1ccc(COc2ccnc(N3CCN(Cc4nc5ccc(C(=O)O)cc5n4Cc4cncs4)[C@@H]4C[C@@H]43)n2)c(F)c1` [Compound 20, 2-((5-(4-((4-Cyano-2-fluorobenzyl)oxy)pyrimidin-2-yl)-2,5-diazabicyclo[4.1.0]heptan-2-yl)methyl)-1-(thiazol-5-ylmethyl)-1H-benzo[d]imidazole-6-carboxylic Acid] gave a pEC50 of 7.30 to 8.30.

The molecule `N#Cc1ccc(COc2cccc([C@@H]3CCN(Cc4nc5ccc(C(=O)O)cc5n4Cc4cncs4)[C@H]4C[C@@H]34)n2)c(F)c1` (single isomer, unassigned) [Compound 15, 2-((5-(6-((4-Cyano-2-fluorobenzyl)oxy)pyridin-2-yl)-2-azabicyclo[4.1.0]heptan-2-yl)methyl)-1-(thiazol-5-ylmethyl)-1H-benzo[d]imidazole-6-carboxylic Acid] showed a pEC50 of 7.30 to 8.30.

Consider `CC1(c2ccc(C#N)cc2F)Oc2cccc(C3CCN(Cc4nc5ccc(C(=O)O)cc5n4Cc4cncs4)CC3)c2O1` (centres unmarked) [Compound 18], for which the pEC50 was above 8.30.
